Where a name gives a salt, the structure may show the parent alone. Read-outs that look alike come from different tables or passages of the source.
Assays:
[1] = Stability and compatibility of netarsudil dimesylate in boric acid-sodium borate buffer solution; assay type: physicochemical; settings: commercially available doses mixed in boric acid-sodium borate buffer solution, pH 4.5 to 5.4
[2] = prescribing information and literature reports of Rhopress®, cited from earlier work

CC(C)NCC(O)COc1ccc(CCOCC2CC2)cc1 (centres unmarked) [betaxolol hydrochloride]
compatibility with netarsudil dimesylate (white precipitate) [1]: incompatible

CC(C)(C)NCC(O)COc1cccc2c1CCC(=O)N2 (centres unmarked) [carteolol hydrochloride]
compatibility with netarsudil dimesylate (white precipitate) [1]: incompatible

Cl [hydrochloric acid]
compatibility with netarsudil dimesylate (white precipitate) [1]: incompatible

O=C(O)/C=C\C(=O)O [maleic acid]
compatibility with netarsudil dimesylate (white precipitate) [1]: incompatible

CC(=O)Oc1c(C)cc(OCC(O)CNC(C)C)c(C)c1C (centres unmarked) [metipranolol hydrochloride]
compatibility with netarsudil dimesylate (white precipitate) [1]: incompatible

CC(C)(C)NC[C@H](O)COc1nsnc1N1CCOCC1 [timolol maleate]
compatibility with netarsudil dimesylate (white precipitate) [1]: incompatible

netarsudil dimesylate
stability in boric acid-sodium borate buffer solution ([2]; pH higher than 5.4): unstable and prone to generating precipitate | stability in boric acid-sodium borate buffer solution ([2]; pH lower than 5.4, commercially available dose): good in stability

Source: patent publication US20260027105A1, “COMPOUND MEDICINE COMPOSITION FOR TREATING GLAUCOMA AND USE OF SAME” (Shenyang Pharmaceutical University, priority 2022, published 2026)
